# Assay results published in patent US20200157508A1, “SYSTEMS AND METHODS FOR GROWTH OF INTESTINAL CELLS” (CEDARS-SINAI MEDICAL CENTER, priority 2017, published 2020).
# Experiments:
# Caco2 cells [1] = assay: Western blot of STAT1 phosphorylation in Caco2 Chip exposed to IFNγ; format: cell-based; settings: 10-1000 ng/ml in lower channel for one hour
# Description: (§1) FIG. 3. a) Western blot analysis showing phosphorylation of STAT1 in Chips containing either HIO-derived intestinal epithelial or Caco2 cells in response to exposure of increasing concentrations (0-1000 ng/ml) of IFNγ in the lower channel for 1 hour. Both GAPDH and STAT1 were used as loading controls. Image J analysis was used to quantify levels of phosphorylation of STAT1 compared to GAPDH b) Quantitative reverse transcription-polymerase chain reaction analyses of IDO1 and GBP1 and c) PLA2G2a, Muc4, lysozyme, Reg3γin Chips incorporating either HIO-derived epithelial or Caco2 cells in response to exposure of 10 ng/ml of IFNγ in the lower channel for 3 days. Three independent experiments were carried out; data represent mean and s.e.m; *P<0.05, **P<0.01 compared to respective untreated controls. […] Two independent experiments were carried out; data represent mean±SEM. **P<0.01. AUC, area under the curve; CTL, control; GAPDH, glyceraldehyde-3-phosphate dehydrogenase.
# (§2) PBS was flushed through both the upper and lower channels and total protein was extracted in situ using cell lysis buffer (Cell Signaling cat #9803s) supplemented with protease and […] inhibitor (Sigma, # MSSAFE). Protein concentration was then determined and equal amounts of protein lysates were heat denatured and separated on a 10% mini-protean precast gel (Bio-Rad, #456-8034). […]
# [2] = tested on: HIO-derived epithelial cells; assay: qRT-PCR gene expression in Intestine-Chip exposed to IFNγ; format: cell-based, human
# Description: as §1
# (§3) PBS was flushed through both the upper and lower channels and total RNA from the Intestine-Chip was extracted in situ with the RNeasy mini kit (Qiagen, USA). cDNA was generated from 1 μg of RNA using the Omniscript RT Kit (Qiagen). qRT-PCR was performed using SYBR® Select Master Mix (Applied Biosystems) on a BioRad CFX384 Real-Time System. Primer sequences as follows:
# (§4) As Caco2 cells are routinely used to assess intestinal epithelial responses and have previously been incorporated into Chips, the Inventors also included these in the Inventors' studies to directly compare the Intestine-Chip. […] Thus both cell types were incubated with 10 ng/ml of IFNγ for 3 days and assessed for upregulation of indoleamine 2 3-dioxygenase (IDO1) and guanylate binding protein 1 (GBP1).
# Caco2 cells [3] = assay: qRT-PCR gene expression in Caco2 Chip exposed to IFNγ; format: cell-based; settings: 10 ng/ml for 3 days
# Description: as §1, §3, §4
# [4] = tested on: HIO-derived intestinal epithelial cells; assay: Western blot of STAT1 phosphorylation in Intestine-Chip exposed to IFNγ; format: cell-based, human; settings: 10-1000 ng/ml in lower channel for one hour
# Description: as §1, §2
# [5] = 10 ng/ml in lower channel for 3 days
# [6] = attenuated in comparison to HIO-epithelial cells
substance,measurement,setting,value
IFNγ: a cytokine known to be upregulated in IBD,phosphorylation of STAT1,Caco2 cells [1],robust phosphorylation of STAT1
same,Muc4 expression,[2]; 10 ng/ml for 3 days,significant upregulation
same,PLA2G2a expression,[2]; 10 ng/ml for 3 days,significant upregulation
same,Reg3γ expression,[2]; 10 ng/ml for 3 days,no differences
same,lysozyme expression,[2]; 10 ng/ml for 3 days,no differences
same,GBP1 expression vs controls,[2]; [5],significant increase
same,IDO1 expression vs controls,[2]; [5],significant increase
same,"expression of PLA2G2a, Muc4, lysozyme, Reg3γ",Caco2 cells [3],did not observe any significant upregulation
same,GBP1 expression vs controls,Caco2 cells [3]; [6],significant upregulation
same,IDO1 expression vs controls,Caco2 cells [3]; [6],significant upregulation
same,phosphorylation of STAT1,[4],robust phosphorylation of STAT1
